Structures can show the parent of a compound that is named as a salt.
What was measured:
[1] = tested on: airways hyperreactivity, pulmonary inflation pressure (PIP); experiment: Airway hyperreactivity (PIP increase after autacoid challenge) after tobacco smoke exposure; assay type: in vivo, guinea pig (male); details: for prevention/inhibition of airway hyperreactivity (words): compounds: oral 20-60, i.v. 0.25-5, s.c. 2-15 mg/Kg, 6 MPHE 10-50 mg/Kg i.m., DSCG 20-100 mg/Kg i.m., salbutamol 0.5 mg/Kg i.v.
Protocol: In order to show this surprising pharmacological property, the compounds of the invention were tested in a bronchial hyperreactivity animal model recently developed (see Omini C. et al., 23rd Ann. Med: S.E.P.C.R., Athens 20-24th June 1988, Abstract 15S Eur. J. Resp. Dis. in press).
The airways hyperreactivity is measured as abnormal increase of the pulmonary inflation pressure (PIP) caused by the exacerbate bronchconstrictive response that follows to an autocoid challenge after active forced tobacco smoke exposure for a 10 minutes period. The abnormal PIP increase is compared with the PIP increase observed, in the same animal, before tobacco smoke, and after autacoids challenge. Male guinea pigs (400-450 g b.w.) anaesthetized with ethylurethane and pancuronium bromide were used; the recording of PIP is performed in accordance with Konzett and Rossler methods (Naumm. Schiedeberg Arch. Exp. Path/Pharmacol. 195, 71, 1940). To evidentiate such bronchial smooth muscle hyperreactivity suitable autocoids are acetylcholine, histamine, serotonine, bradykinins.
Male guinea pigs (400-450 g) are anaesthetized with ethylurethane (i.p.) and pancuronium bromide (i.v.): the trachea is cannulated and the lungs are ventilated at constant volume by connection with "Rodent respirator" Basile apparatus mod. 7025. The pulmonary inflation pressure (PIP) is measured by connection to a side-warm of the tracheal cannula of a Bell and Howell pressure transducer (mod. P 17570) that is connected to a Beckmann (mod. R 611) dynograph. The right jugular vein is catheterized for i.v. injection of autacoids and drugs. The pharmacological experiment starts with the treatment of the animal with the autocoids (for example acetylcholine by i.v. route in the interval 2.5-10 mcg/kg) in order to induce a reversible bronchoconstruction response, measured by an increase of the pulmonary inflation pressure (PIP). This increase is recorded and it is considered to represent the basal value of the animal bronochoconstrictor response to the challenge with the autocoid.
The animal is then actively exposed for a 10 minutes time period to the tobacco smoke of alighted cigarette (directly inspired by the animal). Afterwards the animal is challenged again with the autocoid, using the dosage previously injected for evokating the basal bronchoconstrictor response. The novel challenge induces an exacerbate bronochoconstrictory response and the airway hyper-reactivity is measured as the differential increase in the PIP after tobacco smoke exposure in respect to the basal value. The challenge may be repeated in the time, (2-3 hours after smoke exposure, too) until reproducible hyper-reactive responses are obtained or at different time from tobacco exposure.
(§1) A substance may be administered by i.v., oral, subcutaneous or intramuscular route at different times before tobacco smoke exposure. A compound is considered effective when it is able to prevent almost completely the exacerbate differential increase in the PIP and normalize the BAL cell cytologic pattern at the same dose level.
Differential increases of the pulmonary inflation pressure over the basal value after autacoid challenges, ranging from 150-200% are observed after smoke exposure in the animal control group (i.e. in the absence of any pharmacological treatment).
Drug treatment may be performed using different routes: intravenous, oral, subcutaneous and/or intramuscular; the substances may be administered at different times before smoke exposure and at different dose levels.
Dose related responses have been determined for reference drugs such as 6β-methyl-prednisolone-21-hemisuccinate sodium salt (6MPHE, by i.m. route, 7 hrs. b.s.l.), sodium dichromoglycate (DSCG, by i.m. route, 2 hrs. b.s.e.) and salbutamol (by i.v. route, 20 minutes before smoke exposure); the results reported in table 4, are expressed as % protection from hyperreactive reaction. […]

[2] = tested on: cytologic pattern of BAL fluids; experiment: Cytology of bronchoalveolar lavage (BAL) fluids after tobacco smoke exposure; assay type: in vivo, guinea pig (male); details: smoke-exposed animals; 6 MPHE 50 mg/Kg, DSCG 100 mg/Kg, salbutamol 0.5 mg/Kg
Text: Cytologic studies of the bronochoalveolar lavage (BAL) fluids of the animals, exposed to tobacco smoke and untreated with drugs, show a statistically significant increase of the overall cell counts. Specifically, the number of epithelial cells and of eosinophils is increased, in respect to the cell content of unexposed animals.
At the end of the experiment and/or at a desired time after smoke exposure, the animal is disconnected, and the broncho-alveolar contents are examined by lavages, injecting in the trachea physiological […] solutions (10 ml×3 times). These BAL fluids are combined, centrifuged for 15 minutes at 150 g to give pellets that are suspended in physiological saline (1 ml). The total cell number of BAL fluid is counted in a Burcher camera.
Differential cell counts are made from centrifugated preparations stained with Diff-Quick® counting at least 300 cells for each sample and the % number of epithelial cells, eosinophils, neutrophils, lymphocytes and macrophages are determined.
as §1

[3] = tested on: cough strokes provoked by electrical stimulation of the guinea pig tracheal mucosa; experiment: Electrically stimulated cough stroke test (Cavanaugh et al.); assay type: in vivo; details: for Percent reduction of cough strokes: 15 mg/kg os, one hour after drug
Text: Table 2 refers to results with the compounds of formula (I) in the electrically stimulated cough stroke test, in comparison with codeine phosphate.
(§2) Cough strokes are provoked by electrical stimulation of the guinea pig tracheal mucosa. according to Cavanaugh et al., (Arch. Ing. Pharmacodyn., 220, 258, 1976). Cough strokes are stimulated both before (i.e. in the absence of drug treatment) and one hour after the drug administration. […] A group of six animals is used at each dose level; this test is particularly useful for the evaluation of long lasting effects until and after three hours from the administration.

cough strokes = experiment: Long lasting persistence of the antitussive action; assay type: in vivo, guinea pig; details: 30 mg/Kg os
Text: as §2
The results showing the long lasting persistance of the antitussive action is reported in Table 3 in comparison with codeine phosphate; all the substances are administered at 30 mg/Kg by oral route.

[4] = tested on: cough strokes, evokated by the two experimental models; experiment: In vivo experiments with naloxone in the two cough models; set-up: species or system guinea pig
[5] = Acute toxicity (LD50) in rats, oral; details: rat, in vivo, 14th day of observation, read-out: DL50
Protocol: The compounds of the invention are therapeutically useful substances, practically free of acute, subacute or chronic toxic effects. LD50 values, usually exceeding 1 g/kg body weight are measured in mice and in rats after oral and intraperitoneal (i.p.) administration of the compounds of the invention. Only N-diethylaminoethylamino, N'-[(R,S)-2-(2-methoxyphenoxymethyl)-1,3-thiazolidine]-malondiamide and N-β-pyridylmethylamino-N'-[(R,S)-2-(2-methoxy-phenoxy-methyl)-1,3-thiazolidine]-malondiamide show DL50 values of 0.25 and 0.85 g/Kg respectively after oral administration to rats at the 14th day of observation.

Molecule	prevention/inhibition of airway hyperreactivity (words) [1]	Percent reduction of cough strokes [3] [%]	Percentage reduction of cough strokes during treatment, 1 h (cough strokes) [%]	Percentage reduction of cough strokes during treatment, 2 h (cough strokes) [%]	Percentage reduction of cough strokes during treatment, 3 h (cough strokes) [%]	other results
O=C(O)c1cc(=O)c2c(OCC(O)COc3cccc4oc(C(=O)O)cc(=O)c34)cccc2o1 [DSCG]	preventing airway hyperreactivity					% protection from hyperreactive reaction ([1]; DSCG 25 mg/kg i.m., 2 hrs before smoke exposure): 27%; % protection from hyperreactive reaction ([1]; DSCG 50 mg/kg i.m., 2 hrs before smoke exposure): 64%; % protection from hyperreactive reaction ([1]; DSCG 100 mg/kg i.m., 2 hrs before smoke exposure): 100%; prevention/inhibition of airway hyperreactivity (words) ([1]; listed as Dichromoglycate (DSCG)): effective; normalization of BAL fluid cytology [2]: able to normalize the cellular pattern in the BAL fluids
COc1ccccc1OCC1SCCN1C(=O)CC(=O)O (racemic) [Compound 10, (R,S)-2-(2-methoxy-phenoxymethyl)-3-carboxyacetyl-1,3-thiazolidine]	effective inhibitors of the hyperreactive reaction					
(R,S)-2-(2-methoxy-phenoxymethyl)-3-(3-oxo-butanoyl)-1,3-thiazolidine [Compound 6]		14				
(+)-[2-(2-methoxyphenoxymethyl)-3-ethoxycarbonyl]-1,3-thiazolidine [Compound 8]		63				ED50 ([3]; os, electrical stimulation (Table II)): 12 mg/kg
COc1ccccc1OCC1SCCN1C(=O)CC(=O)NCc1cccnc1 (stereo not shown)			80	67	60	
C=CCN1CC[C@]23c4c5ccc(O)c4O[C@H]2C(=O)CC[C@@]3(O)[C@H]1C5 [naloxone, reference compound]						protection against cough strokes by naloxone alone ([4]; 5 mg/kg s.c., both experimental models): unable to protect guinea pig against cough strokes
COc1ccc2c3c1O[C@H]1[C@@H](O)C=C[C@H]4[C@@H](C2)N(C)CC[C@@]341 [Codeine phosphate, reference compound]		58	77	53	46	
CNC(=O)CC(=O)N1CCSC1COc1ccccc1OC (racemic) [Compound 11, N-methylamino-N-[(R,S)-2-(2-methoxy-phenoxymethyl)-1,3-thiazolidine]-malondiamide]			24	48	60	
C[C@H]1C[C@@H]2[C@H]([C@@H](O)C[C@@]3(C)[C@H]2CC[C@]3(O)C(=O)COC(=O)CCC(=O)O)[C@@]2(C)C=CC(=O)C=C12 [Compound 6MPHE, 6α-methyl-prednisolone-21-hemisuccinatesodium salt]	preventing airway hyperreactivity					% protection from hyperreactive reaction ([1]; 6MPHE 10 mg/kg i.m., 7 hrs before smoke exposure): 65%; % protection from hyperreactive reaction ([1]; 6MPHE 25 mg/kg i.m., 7 hrs before smoke exposure): 85%; % protection from hyperreactive reaction ([1]; 6MPHE 50 mg/kg i.m., 7 hrs before smoke exposure): 100%; prevention/inhibition of airway hyperreactivity (words) ([1]; listed as 6α-methyl-prednisolone- 21-hemisuccinatesodium salt (6 MPHE)): effective; normalization of BAL fluid cytology [2]: able to normalize the cellular pattern in the BAL fluids
COc1ccccc1OCC1SCCN1C(=O)CC(=O)NCc1cccnc1 (racemic) [Table 5 3, N-β-pyridylmethyl, N'-[(R,S)-2-(2-methoxy-phenoxymethyl)-1,3-thiazolidine]-malondiamide]	effective inhibitors of the hyperreactive reaction					LD50 at 336 h [5]: 850 mg/kg
CCN(CC)CCNC(=O)CC(=O)N1CCSC1COc1ccccc1OC (racemic) [Example 14, N-(diethylaminoethyl), N'-[(R,S)-2-(2-methoxy-phenoxymethyl)-1,3-thiazolidine]-malondiamide]						LD50 at 336 h [5]: 250 mg/kg
(R,S)-2-(2-methoxy-phenoxymethyl)-3-ethoxycarbonylacetyl-1,3-thiazolidine [Compound 7]		18	70	60	40	prevention/inhibition of airway hyperreactivity (words) ([1]; listed as (R,S)-2-(2-methoxyphenoxymethyl)-3-ethoxycarbonylacetyl-1,3-thiazolidine): highly effective; prevention/inhibition of airway hyperreactivity (words) ([1]; listed as (R,S)-2-[2-methoxy-phenoxymethyl)-3-ethoxycarbonylacetyl-1,3-thiazolidine): effective inhibitors of the hyperreactive reaction; protective effect after naloxone pretreatment ([4]; naloxone 5 mg/Kg s.c. pretreatment, substance 30 mg/Kg os): complete protection against cough strokes
CC(C)(C)NCC(O)c1ccc(O)c(CO)c1 (stereo not shown) [Salbutamol]	effective					% protection from hyperreactive reaction ([1]; Salbutamol 5 mg/kg i.v., 20 minutes before smoke exposure): 90%; normalization of BAL fluid cytology [2]: fails to modify the smoke induced pathological changes of the BAL fluid cytology

— patent publication US5206254A, “β-carbonyl-carboxyamides of 1,3-thiazolidines” (Boehringer Mannheim Italia S.p.A., priority 1988, dated 1993)
